Assay results reported in article PMC6152701, “Synthesis and Bioactivity Characterization of Scutellarein Sulfonated Derivative” (Molecules : A Journal of Synthetic Chemistry and Natural …, 2017).
Converted amounts (≈) assume the structure as drawn. “And” between values parts separate entries of the source, which are not always exact repeats. Identical values can stand only once.

Experiments:
[1] = Aqueous solubility by UV spectrophotometry; type: physicochemical
Protocol: Scutellarin (1) and scutellarein (2) (300 μg) were dissolved in 25 mL CH3OH, and 3 (300 μg) was dissolved in 25 mL water. […] Each tested compound (250 μg) was ultrasound dissolved in 10 mL pure water for 1 h at 25 °C, and the solutions were stood for 30 min before centrifuging at the speed of 30,000 r/min. Absorbances of each compound were obtained by UV scanning, and the aqueous solubility of all three compounds were obtained through analysis of the standard curve.

[2] = DPPH-radical scavenging ability assay; type: biochemical; conditions: DPPH 80 μmol/L in DMSO, 30 min in the dark
Protocol: Antioxidants play important roles in removing free radicals, as antioxidants provide hydrogen to free radicals and prohibit the adverse reactions from destroying normal tissues. This assay was measured according to previous studies.
The following method was adopted to evaluate the 1,1-diphenyl-2-picrylhydrazyl (DPPH) scavenging property of the products: scutellarin (1), scutellarein (2), and 3 were dissolved in DMSO to result in final concentrations ranging from 16 to 250 μmol/L, and then DPPH (80 μmol/L, 100 μL) dissolved in DMSO was added in the testing samples. After incubating for 30 min in the dark, the scavenging effect was calculated according to the following equation:Scavenging effect (%) = [(1 − (A1 − A2)/A0] × 100%(1) where A0 is the absorbance of the control (without extract), A1 is the absorbance in the presence of the extract, and A2 is the absorbance without DPPH.

[3] = test system: Platelet-poor plasma (PPP), prothrombin time; assay: Antithrombic assay: prothrombin time (PT); type: biochemical, New Zealand white rabbits; conditions: rabbit PPP, compound 100 μM, mean ± SD n = 4, blank plasma 5.03 ± 0.24
From the text: (§1) According to our previous studies, the antithrombotic activity could be estimated by measuring the prolongation of the plasma clotting time of thrombin time (TT), activated partial thromboplastin time (APTT), international normalized ratio (INR) increase in prothrombin time (PT), and reduction in fibrinogen (FIB) content.
(§2) Male New Zealand white rabbits weighing 2–2.5 kg were obtained from the experimental animal center of Nanjing University of Chinese Medicine and were approved by Animal Ethics Committee of Nanjing University of Chinese Medicine. They were kept in plastic cages at 22 ± 2 °C with free access to pellet food and water and on a 12 h light/dark cycle. Animal welfare and experimental procedures were carried out in accordance with the guide for the care and use of laboratory animals (National Research Council of USA, 1996) and related ethical regulations of Nanjing University of Chinese Medicine. Rabbits were anesthetized with pentobarbital (50 mg/kg) and blood was drawn from the common carotid artery. Blood was collected into plastic tubes with 3.8% sodium citrate (citrate/blood: 1:9, v/v) for plasma anticoagulation. Platelet-poor plasma (PPP) was separated from blood by centrifugation at 3000 rpm for 10 min.
(§3) TT, APTT, PT, and FIB were tested with commercial kits following the manufacturer’s instructions by a coagulometer (Model LG-PABER-I, Steellex Co., Beijing, China). All the compounds were dissolved in PBS with 20% DMSO, and the concentration was 100 μM. TT was determined by incubating 40 μL PPP solution for 3 min at 37 °C, followed by addition of 40 μL thrombin solution and 20 μL sample for 3 min at 37 °C. APTT was determined by incubating 10 μL sample solution and 50 μL PPP solution with 50 μL APTT-activating agent for 3 min at 37 °C, followed by the addition of 50 μL CaCl2. PT was determined by incubating 40 μL PPP solution for 3 min at 37 °C, followed by the addition of 40 μL thromboplastin agent and 20 μL sample. FIB was determined by incubating 10 μL PPP solution with 90 μL imidazole buffer for 3 min at 37 °C, followed by addition of 50 μL FIB agent and 10 μL sample solution. By measuring the prolongation of the plasma clotting time of thrombin time (TT), activated partial thromboplastin time (APTT), INR increase in prothrombin time (PT), and reduction in fibrinogen (FIB) content, the antithrombotic activity was assessed.

[4] = test system: Platelet-poor plasma (PPP), activated partial thromboplastin time; assay: Antithrombic assay: activated partial thromboplastin time (APTT); type: biochemical, New Zealand white rabbits; conditions: rabbit PPP, compound 100 μM, mean ± SD n = 4, blank plasma 29.83 ± 3.86
From the text: as §1, §2, §3

[5] = test system: Platelet-poor plasma (PPP), thrombin time; assay: Antithrombic assay: thrombin time (TT); type: biochemical, New Zealand white rabbits; conditions: rabbit PPP, compound 100 μM, mean ± SD n = 4, blank plasma 19.85 ± 1.59
From the text: as §1, §2, §3

[6] = test system: Platelet-poor plasma (PPP), fibrinogen; assay: Antithrombic assay: fibrinogen (FIB) content; type: biochemical, New Zealand white rabbits; conditions: rabbit PPP, compound 100 μM, mean ± SD n = 4, blank plasma 7.23 ± 0.38
From the text: as §1, §2, §3

[7] = set-up: method as in PMID 16997537; conditions: cited from earlier work

SMILES: O=c1cc(-c2ccc(O)cc2)oc2cc(O)c(O)c(O)c12 [Scutellarein (2), 5,6,7-Trihydroxy-2-(4-hydroxyphenyl)-4H-chromen-4-one]
- Solubility ([1]; 1 h): 6.85 µg/mL (≈ 23.9 µM)
- IC50 [2]: 16.1 µM
- PT [3]: 5.93 ± 0.81 s
- PT ([3]; listed as scutellarein (2)): 5.93 s
- APTT [4]: 36.12 ± 2.20 s
- APTT ([4]; listed as scutellarein (2)): 36.12 s
- TT [5]: 24.48 ± 1.18 s
- TT ([5]; listed as scutellarein (2)): 24.48 s
- FIB [6]: 6.91 ± 0.12 g/L
- FIB ([6]; listed as scutellarein (2)): 6.91 g/L

SMILES: O=c1cc(-c2ccc(O)cc2)oc2c(S(=O)(=O)O)c(O)c(O)c(O)c12 [compound 3, 5,6,7-Trihydroxy-2-(4-hydroxyphenyl)-4-oxo-4H-chromene-8-sulfonic acid]
- solubility at 1 h ([1]; 25 °C, water, thermodynamic from solid): 1950 µg/mL (≈ 5320 µM)
- IC50 [2]: 16.8 µM
- PT [3]: 6.33 s and 6.33 ± 1.87 s
- APTT [4]: 30.33 s and 30.33 ± 1.06 s
- TT [5]: 23.71 s and 23.71 ± 1.82 s
- FIB [6]: 7.01 g/L and 7.01 ± 0.96 g/L

SMILES: O=C(O)[C@H]1O[C@@H](Oc2cc3oc(-c4ccc(O)cc4)cc(=O)c3c(O)c2O)[C@H](O)[C@@H](O)[C@@H]1O [Scutellarin (1), 4′,5,6-trihydroxyflavone-7-glucuronide]
- Solubility ([1]; in pure water, 25 °C, UV spectrophotometry): 7.62 µg/mL (≈ 16.5 µM)
- IC50 [2]: 17.9 µM
- PT [3]: 6.25 ± 0.08 s
- PT ([3]; listed as scutellarin (1)): 6.25 s
- APTT [4]: 33.78 ± 2.32 s
- APTT ([4]; listed as scutellarin (1)): 33.78 s
- aqueous solubility [7]: 14.4 ± 0.17 µg/mL (≈ 31.1 µM)
- TT [5]: 23.25 ± 1.55 s
- TT ([5]; listed as scutellarin (1)): 23.25 s
- FIB [6]: 6.41 ± 0.15 g/L
- FIB ([6]; listed as scutellarin (1)): 6.41 g/L
